Results as given in patent US12643903B2, “Bifunctional compounds for degradation of EGFR and related methods of use” (BeiGene, Ltd., priority 2020, dated 2026).

Columns and labels:
EGFR [1] = biological target: T1, EGFR (Homo sapiens, UniProt P00533, L858R/T790M); assay: Cell Degradation 1: EGFR degradation in H1975 cells, HTRF assay; format: cell-based; details: 16 h treatment, EGFR degradation by HTRF
T1 construct: endogenous in cells; host or cells: H1975
Protocol: After 16 h treatment, add 100 μl 1×lysis buffer to each well; seal the plate and incubate 1 hour at room temperature on a plate shaker; Once the cells are lysed, 16 μL of cell lysate are transferred to a PE 384-well HTRF detection plate; 4 μL of pre-mixed HTRF antibodies are added to each well; Cover the plate with a plate sealer, spin 1000 rpm for 1 min, Incubate overnight at room temperature; Read on BMG PheraStar with HTRF protocol (337 nm-665 nm-620 nm).
(§1) The IC50 (DC50) value of a compound can be obtained by fitting the following equation Y=Bottom+(TOP−Bottom)/(1+((IC50/X)^hillslope))
(§2) Wherein, X and Y are known values, and IC50, Hillslope, Top and Bottom are the parameters obtained by fitting with software. Y is the inhibition percentage (calculated from the equation), X is the concentration of the compound; IC50 is the concentration of the compound when the 50% inhibition is reached. The smaller the IC50 value is, the stronger the inhibitory ability of the compound is. Vice versa, the higher the IC50 value is, the weaker the ability the inhibitory ability of the compound is; Hillslope represents the slope of the fitted curve, generally around 1*; Bottom represents the minimum value of the curve obtained by data fitting, which is generally 0%±20%; Top represents the maximum value of the curve obtained by data fitting, which is generally 100%±20%. The experimental data were fitted by calculating and analyzing with Dotmatics data analysis software.

EGFR [2] = biological target: T2, EGFR (Homo sapiens, UniProt P00533, DEL746-750); assay: Cell Degradation 2: EGFR degradation in HCC827 cells, HTRF assay; format: cell-based; details: 16 h treatment, EGFR degradation by HTRF
T2 construct: endogenous in cells; host or cells: HCC827
Protocol: After 16 h treatment, add 100 μl 1×lysis buffer to each well; seal the plate and incubate 1 hour at room temperature on a plate shaker; Once the cells are lysed, 16 μl diluted (2 μL to 14 μl 1× lysisi buffer) cell lysate are transferred to a PE 384-well HTRF detection plate; 4 μL of pre-mixed HTRF antibodies are added to each well; Cover the plate with a plate sealer, spin 1000 rpm for 1 min, Incubate overnight at room temperature; Read on BMG PheraStar with HTRF protocol (337 nm-665 nm-620 nm).
as §1, §2

T1 sequence (P00533 25-1210 T790M/L858R): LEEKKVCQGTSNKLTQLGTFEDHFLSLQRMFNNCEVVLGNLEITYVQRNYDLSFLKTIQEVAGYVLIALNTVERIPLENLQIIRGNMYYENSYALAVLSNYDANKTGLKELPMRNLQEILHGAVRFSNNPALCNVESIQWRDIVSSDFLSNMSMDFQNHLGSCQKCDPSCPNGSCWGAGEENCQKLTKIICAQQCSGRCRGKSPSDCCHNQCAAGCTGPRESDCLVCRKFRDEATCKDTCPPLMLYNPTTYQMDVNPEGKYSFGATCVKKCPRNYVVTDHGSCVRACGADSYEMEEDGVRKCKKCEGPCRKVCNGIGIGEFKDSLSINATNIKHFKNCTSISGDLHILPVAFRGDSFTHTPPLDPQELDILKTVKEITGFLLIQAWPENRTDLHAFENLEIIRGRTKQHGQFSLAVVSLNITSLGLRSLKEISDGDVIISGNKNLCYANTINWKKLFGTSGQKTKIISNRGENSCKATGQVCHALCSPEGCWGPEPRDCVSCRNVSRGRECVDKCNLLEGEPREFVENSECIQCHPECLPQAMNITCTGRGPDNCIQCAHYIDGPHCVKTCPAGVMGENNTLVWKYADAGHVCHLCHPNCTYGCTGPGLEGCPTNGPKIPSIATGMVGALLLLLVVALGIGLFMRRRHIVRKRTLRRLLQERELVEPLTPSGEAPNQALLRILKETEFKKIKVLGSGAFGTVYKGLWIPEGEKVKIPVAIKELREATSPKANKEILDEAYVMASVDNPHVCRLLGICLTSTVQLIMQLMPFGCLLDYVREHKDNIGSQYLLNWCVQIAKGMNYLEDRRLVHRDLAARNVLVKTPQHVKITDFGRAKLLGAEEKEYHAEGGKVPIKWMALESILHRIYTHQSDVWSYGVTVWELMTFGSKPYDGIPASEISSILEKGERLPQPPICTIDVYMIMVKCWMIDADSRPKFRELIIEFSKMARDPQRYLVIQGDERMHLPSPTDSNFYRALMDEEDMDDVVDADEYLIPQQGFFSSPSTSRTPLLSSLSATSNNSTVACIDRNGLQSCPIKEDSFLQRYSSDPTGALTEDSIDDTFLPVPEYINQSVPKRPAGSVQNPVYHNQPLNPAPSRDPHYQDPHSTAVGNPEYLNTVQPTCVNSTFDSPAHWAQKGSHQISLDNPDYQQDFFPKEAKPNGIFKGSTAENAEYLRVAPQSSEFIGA
T2 sequence (P00533 with tags, fused parts or gaps DEL746-750): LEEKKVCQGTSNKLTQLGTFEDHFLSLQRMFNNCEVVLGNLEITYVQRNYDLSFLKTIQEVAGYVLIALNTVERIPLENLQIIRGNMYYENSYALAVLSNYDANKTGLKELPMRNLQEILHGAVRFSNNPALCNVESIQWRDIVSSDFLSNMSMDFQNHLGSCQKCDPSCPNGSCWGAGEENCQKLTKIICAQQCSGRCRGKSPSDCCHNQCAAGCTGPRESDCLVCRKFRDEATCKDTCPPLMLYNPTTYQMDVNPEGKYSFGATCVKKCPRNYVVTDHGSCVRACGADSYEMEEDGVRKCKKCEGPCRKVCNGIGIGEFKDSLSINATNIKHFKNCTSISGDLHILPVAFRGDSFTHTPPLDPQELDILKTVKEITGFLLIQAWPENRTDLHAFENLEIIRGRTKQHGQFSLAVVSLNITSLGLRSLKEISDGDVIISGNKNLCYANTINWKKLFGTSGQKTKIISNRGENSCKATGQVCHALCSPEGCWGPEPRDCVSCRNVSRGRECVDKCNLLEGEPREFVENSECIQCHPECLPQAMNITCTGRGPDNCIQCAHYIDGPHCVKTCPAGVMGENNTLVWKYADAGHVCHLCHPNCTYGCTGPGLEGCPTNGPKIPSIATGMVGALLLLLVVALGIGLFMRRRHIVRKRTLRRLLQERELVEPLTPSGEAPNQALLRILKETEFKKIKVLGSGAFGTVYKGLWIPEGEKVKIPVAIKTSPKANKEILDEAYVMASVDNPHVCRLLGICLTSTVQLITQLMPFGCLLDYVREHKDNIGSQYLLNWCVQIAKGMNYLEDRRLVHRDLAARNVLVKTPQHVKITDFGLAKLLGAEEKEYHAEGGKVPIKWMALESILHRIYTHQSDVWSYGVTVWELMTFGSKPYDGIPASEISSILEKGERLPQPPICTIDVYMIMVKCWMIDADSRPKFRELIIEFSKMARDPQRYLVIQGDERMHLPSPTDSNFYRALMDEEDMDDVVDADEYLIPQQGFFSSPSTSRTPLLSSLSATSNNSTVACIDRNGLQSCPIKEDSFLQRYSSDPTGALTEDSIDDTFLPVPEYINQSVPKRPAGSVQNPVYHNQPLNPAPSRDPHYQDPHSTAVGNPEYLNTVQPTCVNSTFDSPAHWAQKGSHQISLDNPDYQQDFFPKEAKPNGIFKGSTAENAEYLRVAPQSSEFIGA
T2 sequence (Q96SW2 whole entry partner): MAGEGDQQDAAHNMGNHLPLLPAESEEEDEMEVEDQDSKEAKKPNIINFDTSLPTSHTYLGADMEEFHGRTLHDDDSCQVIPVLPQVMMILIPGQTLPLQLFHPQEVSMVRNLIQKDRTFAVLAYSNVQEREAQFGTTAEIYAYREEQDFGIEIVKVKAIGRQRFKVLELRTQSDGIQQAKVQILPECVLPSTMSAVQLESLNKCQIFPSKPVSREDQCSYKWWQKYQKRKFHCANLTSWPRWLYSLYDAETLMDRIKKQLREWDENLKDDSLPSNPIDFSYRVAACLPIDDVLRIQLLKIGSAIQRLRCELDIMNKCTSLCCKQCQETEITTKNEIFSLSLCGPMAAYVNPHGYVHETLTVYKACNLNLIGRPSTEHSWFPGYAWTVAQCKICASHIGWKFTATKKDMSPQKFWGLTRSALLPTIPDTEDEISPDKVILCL

Row | Compound | DC50 (EGFR [1]) [µM] | DC50 (EGFR [2]) [µM]
1 | CS(=O)(=O)N1CCc2cccc(Nc3nc(Nc4ccc(N5CCC(N6CCN(CCc7ccc(C8CCC(=O)NC8=O)cc7)CC6)CC5)c(F)c4)nc4[nH]ccc34)c21 (centres unmarked) [Example 1, 3-(4-(2-(4-(1-(2-fluoro-4-((4-((1-(methylsulfonyl)indolin-7-yl)amino)-7H-pyrrolo[2,3-d]pyrimidin-2-yl)amino)phenyl)piperidin-4-yl)piperazin-1-yl)ethyl)phenyl)piperidine-2,6-dione] | 0.0099 | 0.0247
2 | COc1cc(CCN2CCN(C3CCN(c4ccc(Nc5nc(Nc6cccc7c6N(S(C)(=O)=O)CC7)c6cc[nH]c6n5)cc4F)CC3)CC2)ccc1C1CCC(=O)NC1=O (centres unmarked) [Example 2, 3-(4-(2-(4-(1-(2-fluoro-4-((4-((1-(methylsulfonyl)indolin-7-yl)amino)-7H-pyrrolo[2,3-d]pyrimidin-2-yl)amino)phenyl)piperidin-4-yl)piperazin-1-yl)ethyl)-2-methoxyphenyl)piperidine-2,6-dione] | 0.0369 | 0.0334
3 | CS(=O)(=O)N1CCc2cccc(Nc3nc(Nc4ccc(N5CCC(N6CCN(CCCOc7ccc(OC8CCC(=O)NC8=O)cc7)CC6)CC5)c(F)c4)nc4[nH]ccc34)c21 (centres unmarked) [Example 4, 3-(4-(3-(4-(1-(2-fluoro-4-((4-((1-(methylsulfonyl)indolin-7-yl)amino)-7H-pyrrolo[2,3-d]pyrimidin-2-yl)amino)phenyl)piperidin-4-yl)piperazin-1-yl)propoxy)phenoxy)piperidine-2,6-dione] | 0.0155 | > 10
4 | CS(=O)(=O)N1CCc2cccc(Nc3nc(Nc4ccc(N5CCC(N6CCN(CCOc7cccc(C8CCC(=O)NC8=O)c7)CC6)CC5)c(F)c4)nc4[nH]ccc34)c21 (centres unmarked) [Example 5, 3-(3-(2-(4-(1-(2-fluoro-4-((4-((1-(methylsulfonyl)indolin-7-yl)amino)-7H-pyrrolo[2,3-d]pyrimidin-2-yl)amino)phenyl)piperidin-4-yl)piperazin-1-yl)ethoxy)phenyl)piperidine-2,6-dione] | 0.009 | 0.0626
5 | CN(CCN1CCN(C2CCN(c3ccc(Nc4nc(Nc5cccc6c5N(S(C)(=O)=O)CC6)c5cc[nH]c5n4)cc3F)CC2)CC1)c1cccc(C2CCC(=O)NC2=O)c1 (centres unmarked) [Example 6, 3-(3-((2-(4-(1-(2-fluoro-4-((4-((1-(methylsulfonyl)indolin-7-yl)amino)-7H-pyrrolo[2,3-d]pyrimidin-2-yl)amino)phenyl)piperidin-4-yl)piperazin-1-yl)ethyl)(methyl)amino)phenyl)piperidine-2,6-dione] | 0.0074 | 0.0293
6 | CS(=O)(=O)N1CCc2cccc(Nc3nc(Nc4ccc(N5CCC(N6CCN(CCC7CCN(c8ccc(C9CCC(=O)NC9=O)c(F)c8)CC7)CC6)CC5)c(F)c4)nc4[nH]ccc34)c21 (centres unmarked) [Example 9, 3-(2-fluoro-4-(4-(2-(4-(1-(2-fluoro-4-((4-((1-(methylsulfonyl)indolin-7-yl)amino)-7H-pyrrolo[2,3-d]pyrimidin-2-yl)amino)phenyl)piperidin-4-yl)piperazin-1-yl)ethyl)piperidin-1-yl)phenyl)piperidine-2,6-dione] | 0.0191 | 0.0167
7 | CS(=O)(=O)N1CCc2cccc(Nc3nc(Nc4ccc(N5CCC(N6CCN(CCC7CCN(c8ccc(C9CCC(=O)NC9=O)c(C#N)c8)CC7)CC6)CC5)c(F)c4)nc4[nH]ccc34)c21 (centres unmarked) [Example 10, 2-(2,6-dioxopiperidin-3-yl)-5-(4-(2-(4-(1-(2-fluoro-4-((4-((1-(methylsulfonyl)indolin-7-yl)amino)-7H-pyrrolo[2,3-d]pyrimidin-2-yl)amino)phenyl)piperidin-4-yl)piperazin-1-yl)ethyl)piperidin-1-yl)benzonitrile] | 0.0093 | > 10
8 | CS(=O)(=O)N1CCc2cccc(Nc3nc(Nc4ccc(N5CCC(N6CCN(C(=O)CCN7CCC(c8ccc(C9CCC(=O)NC9=O)cc8)CC7)CC6)CC5)c(F)c4)nc4[nH]ccc34)c21 (centres unmarked) [Example 11, 3-(4-(1-(3-(4-(1-(2-fluoro-4-((4-((1-(methylsulfonyl)indolin-7-yl)amino)-7H-pyrrolo[2,3-d]pyrimidin-2-yl)amino)phenyl)piperidin-4-yl)piperazin-1-yl)-3-oxopropyl)piperidin-4-yl)phenyl)piperidine-2,6-dione] | 0.0237 | 0.123
9 | CS(=O)(=O)N1CCc2cccc(Nc3nc(Nc4ccc(N5CCC(N6CCN(C(=O)CC7CCN(c8ccc(C9CCC(=O)NC9=O)cc8)CC7)CC6)CC5)c(F)c4)nc4[nH]ccc34)c21 (centres unmarked) [Example 12, 3-(4-(4-(2-(4-(1-(2-fluoro-4-((4-((1-(methylsulfonyl)indolin-7-yl)amino)-7H-pyrrolo[2,3-d]pyrimidin-2-yl)amino)phenyl)piperidin-4-yl)piperazin-1-yl)-2-oxoethyl)piperidin-1-yl)phenyl)piperidine-2,6-dione] | 0.0124 | 0.0335
10 | CS(=O)(=O)N1CCc2cccc(Nc3nc(Nc4ccc(N5CCC(N6CCN(CC[C@H]7CCN(c8ccc(C9CCC(=O)NC9=O)cc8)C7)CC6)CC5)c(F)c4)nc4[nH]ccc34)c21 (stereo partly drawn) [Example 13, 3-(4-((S)-3-(2-(4-(1-(2-fluoro-4-((4-((1-(methylsulfonyl)indolin-7-yl)amino)-7H-pyrrolo[2,3-d]pyrimidin-2-yl)amino)phenyl)piperidin-4-yl)piperazin-1-yl)ethyl)pyrrolidin-1-yl)phenyl)piperidine-2,6-dione] | 0.0111 | 0.0293
11 | CS(=O)(=O)N1CCc2cccc(Nc3nc(Nc4ccc(N5CCC(N6CCN(C(=O)C7CCN(CC8CCN(c9ccc%10c(c9)C(=O)N(C9CCC(=O)NC9=O)C%10=O)CC8)CC7)CC6)CC5)c(F)c4)nc4[nH]ccc34)c21 (centres unmarked) [Example 14, 2-(2,6-dioxopiperidin-3-yl)-5-(4-((4-(4-(1-(2-fluoro-4-((4-((1-(methylsulfonyl)indolin-7-yl)amino)-7H-pyrrolo[2,3-d]pyrimidin-2-yl)amino)phenyl)piperidin-4-yl)piperazine-1-carbonyl)piperidin-1-yl)methyl)piperidin-1-yl)isoindoline-1,3-dione] | 0.0271 | 0.0922
12 | CS(=O)(=O)N1CCc2cccc(Nc3nc(Nc4ccc(N5CCC(N6CCN(CC7CCN(c8ccc9c(c8)C(=O)N(C8CCC(=O)NC8=O)C9=O)CC7)CC6)CC5)c(F)c4)nc4[nH]ccc34)c21 (centres unmarked) [Example 16, 2-(2,6-dioxopiperidin-3-yl)-5-(4-((4-(1-(2-fluoro-4-((4-((1-(methylsulfonyl)indolin-7-yl)amino)-7H-pyrrolo[2,3-d]pyrimidin-2-yl)amino)phenyl)piperidin-4-yl)piperazin-1-yl)methyl)piperidin-1-yl)isoindoline-1,3-dione] | 0.0337 | 0.0326
13 | CS(=O)(=O)N1CCc2cccc(Nc3nc(Nc4ccc(N5CCC(N6CCN(CCC7CCN(c8ccc9c(c8)C(=O)N(C8CCC(=O)NC8=O)C9=O)CC7)CC6)CC5)c(F)c4)nc4[nH]ccc34)c21 (centres unmarked) [Example 17, 2-(2,6-dioxopiperidin-3-yl)-5-(4-(2-(4-(1-(2-fluoro-4-((4-((1-(methylsulfonyl)indolin-7-yl)amino)-7H-pyrrolo[2,3-d]pyrimidin-2-yl)amino)phenyl)piperidin-4-yl)piperazin-1-yl)ethyl)piperidin-1-yl)isoindoline-1,3-dione] | 0.0096 | 0.0308
14 | CS(=O)(=O)N1CCc2cccc(Nc3nc(Nc4ccc(N5CCC(N6CCN(CCC7CCN(c8ccc9c(c8)CN(C8CCC(=O)NC8=O)C9=O)CC7)CC6)CC5)c(F)c4)nc4[nH]ccc34)c21 (centres unmarked) [Example 18, 3-(5-(4-(2-(4-(1-(2-fluoro-4-((4-((1-(methylsulfonyl)indolin-7-yl)amino)-7H-pyrrolo[2,3-d]pyrimidin-2-yl)amino)phenyl)piperidin-4-yl)piperazin-1-yl)ethyl)piperidin-1-yl)-1-oxoisoindolin-2-yl)piperidine-2,6-dione] | 0.0141 | 0.0108
15 | CS(=O)(=O)N1CCc2cccc(Nc3nc(Nc4ccc(N5CCC(N6CCN(CCOc7cccc8c7CN(C7CCC(=O)NC7=O)C8=O)CC6)CC5)c(F)c4)nc4[nH]ccc34)c21 (centres unmarked) [Example 20, 3-(4-(2-(4-(1-(2-fluoro-4-((4-((1-(methylsulfonyl)indolin-7-yl)amino)-7H-pyrrolo[2,3-d]pyrimidin-2-yl)amino)phenyl)piperidin-4-yl)piperazin-1-yl)ethoxy)-1-oxoisoindolin-2-yl)piperidine-2,6-dione] | 0.0097 | 0.0147
16 | COc1cc(N2CCC(N3CCN(CCc4ccc(C5CCC(=O)NC5=O)cc4)CC3)CC2)ccc1Nc1nc(Nc2cccc3c2N(S(C)(=O)=O)CC3)c2cc[nH]c2n1 (centres unmarked) [Example 21, 3-(4-(2-(4-(1-(3-methoxy-4-((4-((1-(methylsulfonyl)indolin-7-yl)amino)-7H-pyrrolo[2,3-d]pyrimidin-2-yl)amino)phenyl)piperidin-4-yl)piperazin-1-yl)ethyl)phenyl)piperidine-2,6-dione] | 0.0384 | 0.113
